Source: ChEMBL document CHEMBL4665865, “New series of isoxazole derivatives targeting EGFR-TK: Synthesis, molecular modeling and antitumor evaluation” (Bioorg Med Chem, 2020)

Key:
[1] = biological target: Vascular endothelial growth factor receptor 2 (Homo sapiens, UniProt P35968)
Description: Inhibition of VEGFR-2 (unknown origin) relative to control

MCF7 [2] = experiment: Induction of apoptosis in human MCF-7 cells assessed as increase in Bax protein expression by Western blot analysis relative to untreated control; type: functional
HCT-116 [3] = experiment: Induction of cell cycle arrest in human HCT-116 cells assessed as cell debris at antiproliferative IC50 by PI staining based flow cytometric analysis (reference value: 1.42%); type: functional; conditions: time 24 hrs
MCF7 [4] = experiment: Induction of cell cycle arrest in human MCF7 cells assessed as accumulation of cells at S phase at antiproliferative IC50 by PI staining based flow cytometric analysis (reference value: 32.91%); type: functional
MCF7 [5] = experiment: Induction of cell cycle arrest in human MCF7 cells assessed as accumulation of cells at G0/G1 phase at antiproliferative IC50 by PI staining based flow cytometric analysis (reference value: 56.14%); type: functional
HCT-116 [6] = experiment: Induction of cell cycle arrest in human HCT-116 cells assessed as accumulation of cells at G0/G1 phase at antiproliferative IC50 by PI staining based flow cytometric analysis (reference value: 48.52%); type: functional
HepG2 [7] = experiment: Antitumor activity against human HepG2 cells assessed as inhibition of cell viability by MTT assay; type: functional, cell-based
MCF7 [8] = experiment: Induction of cell cycle arrest in human MCF7 cells assessed as aggregates at antiproliferative IC50 by PI staining based flow cytometric analysis (reference value: 2.11%); type: functional; conditions: time 24 hrs
HepG2 [9] = experiment: Induction of apoptosis in human HepG2 cells assessed as increase in Bax protein expression by Western blot analysis relative to untreated control; type: functional
MCF7 [10] = experiment: Induction of apoptosis in human MCF7 cells assessed as early apoptotic cells at antiproliferative IC50 incubated for 24 hrs by annexin V FITC and propidium iodide staining based flow cytometry (reference value: 0.39 %); type: functional
[11] = biological target: Epidermal growth factor receptor (Homo sapiens, UniProt P00533); experiment: Inhibition of EGFR-TK (unknown origin) relative to control
Chain of Epidermal growth factor receptor (P00533 whole entry): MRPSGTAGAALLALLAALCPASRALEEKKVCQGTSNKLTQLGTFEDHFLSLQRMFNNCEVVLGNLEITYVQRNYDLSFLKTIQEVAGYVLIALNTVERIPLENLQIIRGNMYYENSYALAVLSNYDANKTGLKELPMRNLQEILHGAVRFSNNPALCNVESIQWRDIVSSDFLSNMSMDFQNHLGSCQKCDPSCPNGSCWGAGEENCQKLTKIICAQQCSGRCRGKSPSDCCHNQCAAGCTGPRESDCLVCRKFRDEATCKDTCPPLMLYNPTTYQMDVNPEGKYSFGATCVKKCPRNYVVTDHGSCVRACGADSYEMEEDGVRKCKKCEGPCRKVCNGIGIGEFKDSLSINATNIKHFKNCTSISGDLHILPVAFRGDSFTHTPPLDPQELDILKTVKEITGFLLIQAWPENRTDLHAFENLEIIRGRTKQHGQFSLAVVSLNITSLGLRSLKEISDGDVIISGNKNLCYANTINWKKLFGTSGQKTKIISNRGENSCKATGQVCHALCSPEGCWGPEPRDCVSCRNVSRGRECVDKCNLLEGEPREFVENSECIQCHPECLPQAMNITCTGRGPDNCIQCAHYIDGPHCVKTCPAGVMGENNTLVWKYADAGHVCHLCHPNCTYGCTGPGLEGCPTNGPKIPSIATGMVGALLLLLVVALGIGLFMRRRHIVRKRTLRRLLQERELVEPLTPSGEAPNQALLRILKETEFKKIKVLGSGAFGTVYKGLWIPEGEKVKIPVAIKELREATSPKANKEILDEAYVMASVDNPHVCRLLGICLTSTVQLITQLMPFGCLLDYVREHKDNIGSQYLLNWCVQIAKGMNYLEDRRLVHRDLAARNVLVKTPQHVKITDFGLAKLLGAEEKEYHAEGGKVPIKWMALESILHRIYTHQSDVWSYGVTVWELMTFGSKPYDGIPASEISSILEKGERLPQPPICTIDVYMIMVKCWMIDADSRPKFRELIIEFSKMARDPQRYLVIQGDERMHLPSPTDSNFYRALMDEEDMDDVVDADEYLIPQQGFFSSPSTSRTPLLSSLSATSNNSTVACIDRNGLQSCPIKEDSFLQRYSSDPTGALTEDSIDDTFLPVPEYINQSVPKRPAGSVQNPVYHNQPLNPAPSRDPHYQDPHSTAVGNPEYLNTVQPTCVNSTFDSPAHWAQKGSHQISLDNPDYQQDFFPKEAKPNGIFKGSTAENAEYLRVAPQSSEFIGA

Chain of Vascular endothelial growth factor receptor 2 (P35968 whole entry): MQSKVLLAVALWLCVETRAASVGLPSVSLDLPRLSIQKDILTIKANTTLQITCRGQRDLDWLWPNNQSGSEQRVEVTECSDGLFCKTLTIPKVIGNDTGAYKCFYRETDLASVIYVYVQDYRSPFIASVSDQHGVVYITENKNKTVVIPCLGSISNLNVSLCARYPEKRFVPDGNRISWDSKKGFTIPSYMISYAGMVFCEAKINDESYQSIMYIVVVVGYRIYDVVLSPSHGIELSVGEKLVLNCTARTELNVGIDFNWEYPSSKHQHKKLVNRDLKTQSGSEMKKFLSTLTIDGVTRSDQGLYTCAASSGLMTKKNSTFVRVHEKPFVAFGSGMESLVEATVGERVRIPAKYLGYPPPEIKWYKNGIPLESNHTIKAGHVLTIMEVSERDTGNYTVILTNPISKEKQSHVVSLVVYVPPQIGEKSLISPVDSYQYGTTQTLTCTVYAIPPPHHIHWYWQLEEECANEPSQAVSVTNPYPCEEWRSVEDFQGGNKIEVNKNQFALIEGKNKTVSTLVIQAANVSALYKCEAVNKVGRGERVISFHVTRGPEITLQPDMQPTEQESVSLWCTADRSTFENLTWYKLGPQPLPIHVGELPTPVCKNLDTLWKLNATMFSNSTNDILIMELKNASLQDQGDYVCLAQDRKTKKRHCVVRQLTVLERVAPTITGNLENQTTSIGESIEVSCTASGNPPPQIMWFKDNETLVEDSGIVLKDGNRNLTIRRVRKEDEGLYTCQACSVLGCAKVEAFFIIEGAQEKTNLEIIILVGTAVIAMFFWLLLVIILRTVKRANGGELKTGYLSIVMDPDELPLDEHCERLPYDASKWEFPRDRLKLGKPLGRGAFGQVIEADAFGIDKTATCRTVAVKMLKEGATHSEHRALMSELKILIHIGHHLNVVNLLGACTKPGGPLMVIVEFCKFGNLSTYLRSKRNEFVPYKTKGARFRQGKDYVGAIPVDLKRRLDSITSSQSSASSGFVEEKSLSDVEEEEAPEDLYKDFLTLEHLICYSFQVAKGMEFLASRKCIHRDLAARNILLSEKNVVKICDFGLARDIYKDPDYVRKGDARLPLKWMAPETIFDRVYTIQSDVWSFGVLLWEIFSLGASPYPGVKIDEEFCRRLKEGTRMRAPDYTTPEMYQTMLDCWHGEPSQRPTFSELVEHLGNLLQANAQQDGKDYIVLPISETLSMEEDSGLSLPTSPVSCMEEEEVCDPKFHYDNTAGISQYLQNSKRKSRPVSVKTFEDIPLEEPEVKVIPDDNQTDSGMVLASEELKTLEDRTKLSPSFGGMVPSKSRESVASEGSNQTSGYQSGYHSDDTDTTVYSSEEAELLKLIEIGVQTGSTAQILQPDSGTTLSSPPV

IC50 [1]: 87 nM
IC50 (HepG2 [7]): 6860 nM
IC50 [11]: 54 nM
Compound: Cc1cc(NC2=NC(=O)/C(=C\c3c4ccccc4cc4ccccc34)S2)no1
fold change (FC) (MCF7 [2]): 7
Activity (HCT-116 [3]): 1.92%
Activity (MCF7 [4]): 26.41%
Activity (MCF7 [5]): 44.25%
Activity (HCT-116 [6]): 29.67%
Activity (MCF7 [8]): 2.11%
fold change (FC) (HepG2 [9]): 4.1
Activity (MCF7 [10]): 6.28%
